# According to PMC11882969 (Nature Communications, 2025):
# Several values for one entry are separate records, joined by “and”; a condition that tells them apart may be missing. Equal entries are not always repeated.
# Tests used:
# [1] = molecular target: panel of 320 non-olfactory GPCRs (Homo sapiens, UniProt Q7Z602); assay type: cell-based
# [2] = molecular target: panel of 320 non-olfactory GPCRs (Homo sapiens, UniProt O60883); assay type: cell-based
# Note: test concentration or dose not given here.
# Sequence of panel of 320 non-olfactory GPCRs (Homo sapiens, UniProt Q7Z602) (Q7Z602 whole entry): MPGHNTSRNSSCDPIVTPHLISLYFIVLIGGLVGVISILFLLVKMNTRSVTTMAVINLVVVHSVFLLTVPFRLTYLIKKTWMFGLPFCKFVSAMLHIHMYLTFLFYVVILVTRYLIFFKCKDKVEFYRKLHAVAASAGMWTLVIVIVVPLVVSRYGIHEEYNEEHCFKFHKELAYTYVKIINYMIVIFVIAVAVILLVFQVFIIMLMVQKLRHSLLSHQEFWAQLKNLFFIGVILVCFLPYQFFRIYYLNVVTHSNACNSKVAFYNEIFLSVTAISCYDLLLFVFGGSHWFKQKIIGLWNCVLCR
# Sequence of panel of 320 non-olfactory GPCRs (Homo sapiens, UniProt O60883) (O60883 26-481): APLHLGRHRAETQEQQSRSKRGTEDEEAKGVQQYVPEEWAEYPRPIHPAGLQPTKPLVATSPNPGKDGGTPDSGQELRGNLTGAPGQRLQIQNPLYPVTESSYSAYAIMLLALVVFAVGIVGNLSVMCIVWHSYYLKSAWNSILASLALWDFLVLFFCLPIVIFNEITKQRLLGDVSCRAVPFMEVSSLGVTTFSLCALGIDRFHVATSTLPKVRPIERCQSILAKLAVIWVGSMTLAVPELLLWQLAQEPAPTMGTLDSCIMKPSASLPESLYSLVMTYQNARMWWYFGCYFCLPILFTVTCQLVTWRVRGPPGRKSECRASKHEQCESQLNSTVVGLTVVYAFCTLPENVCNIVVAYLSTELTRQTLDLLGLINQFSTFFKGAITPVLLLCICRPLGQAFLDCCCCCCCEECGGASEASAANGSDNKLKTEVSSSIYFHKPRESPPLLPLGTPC
structure (smiles),measurement,setting,value
Cc1cc(C(=O)NC(C)(c2ccco2)c2ccco2)nn1-c1cccc(C(F)(F)F)c1 [‘4936],Fold of Basal RLU,[1],1.2 fold and 1.4 fold and 0.8 fold
same,Fold of Basal RLU,[2],0.5 fold and 0.9 fold and 0.6 fold
